According to ChEMBL document CHEMBL1158819, “Zyzzyanones B-D, dipyrroloquinones from the marine sponge Zyzzya fuliginosa” (J Nat Prod, 2005):
Converted amounts (≈) assume the structure as drawn.

Experiment: Cytotoxicity against mouse EAC cells
Type: functional, cell-based
Conditions: Ehrlich

Compound	IC50 [µg/mL]
CNCCc1c[nH]c2c1C(=O)c1c(-c3ccc(O)cc3)c[nH]c1C2=O [ZYZZYANONE B]	25 (≈ 74.5 µM)
CN(C=O)CCc1cn(C)c2c1C(=O)c1c(-c3ccc(O)cc3)c[nH]c1C2=O [ZYZZYANONE C]	25 (≈ 66.2 µM)
CN(C=O)CCc1c[nH]c2c1C(=O)c1c(-c3ccc(O)cc3)c[nH]c1C2=O [ZYZZYANONE D]	25 (≈ 68.8 µM)
